# Measurements: patent publication US7705049B2, “Methods for treating non-melanoma cancers with PABA” (New York University, priority 2004, dated 2010)
# Columns and labels:
# [1] = tested on: reactive oxygen species (ROS); settings: 100 nM, 24 hours exposure; cited from earlier work
# [2] = tested on: MCF7 breast carcinoma cells; assay: MTT proliferation assay, MCF7 cells; assay type: cell-based; settings: Homo sapiens, PABA 0.1 mg/ml 3 days, 5-FU 1 μM, ^90Y-huBrE-3 1 μCi, MTT after 72 hours
# Protocol: Pharmaceutical grade ^90Y was buffered in 0.05M acetate and incubated with MX-DTPA-huBrE-3 and 5 mM EDTA for 1 hr, followed by purification on a Bio-Gel P6 column eluted with 1% human serum albumin to generate radiolabeled ^90Y-huBrE-3 antibody. MCF7 breast carcinoma cells were incubated with and without PABA (0.1 mg/ml) in DMEM media for 3 days, and then exposed to 5-fluorouracil (5-FU) in concentrations of 0, 0.05, 0.1, 1.0 and 5.0 μM, and concentrations of ^90Y-huBrE-3 in concentrations of 0, 1.0, 2.0, and 4 μCi. Effects on proliferation were monitored after 72 hours using a commercially available MTT assay.
# [3] = tested on: Lewis Lung carcinoma cells; assay: Chick embryo CAM tumor growth, Lewis Lung carcinoma; assay type: in vivo, chick embryos; settings: PABA 100 ug/ml, TAXOL 0.01 μM, 7 days
# Protocol: Lewis Lung carcinoma cells and murine 4T1 breast carcinoma cells (available from American Type Culture Collection, Rockville, MD-No. CRL-2539), were cultured in growth medium in the presence or absence of PABA (100 ug/ml) for at least 7 days. The cells were harvested, washed and resuspended in sterile PBS, followed by implantation on the chorioallantoic membranes (CAM) of 10-day old chick embryos. Embryos were allowed to incubate for 24 hours. The embryos were then treated with either a single fraction dose of ionizing radiation (5.0 Gy) or TAXOL® (0.01 μM) and allowed to incubate for 7 days.
# MCF-7 xenograft = settings: subtherapeutic doses; cited from earlier work
# [4] = tested on: 4T1 breast carcinoma cells; assay: Subcutaneous 4T1 breast tumor growth and lung metastasis in mice; assay type: in vivo
# Protocol: Sub-confluent cultures of 4T1 breast carcinoma cells were harvested, washed and resuspended in PBS. Female nude mice or Balb/c strain mice were injected subcutaneously with approximately 1×10^6 tumor cells. Subcutaneous tumors were allowed to grow for 7 days, at which time the mice were treated daily by intraperitoneal injections of the following: • PABA alone (500 μg/mouse) • Radiation alone (9.0 Gy) • PABA and radiation • Docetaxel (8.0 mg/kg 1 time/week, intraperitoneal administration) • PABA and docetaxel (daily PABA and intraperitoneal administration of 8.0 mg/kg docetaxel 1 time/week) Untreated mice were used as a control. Tumor growth was gauged by weekly caliper measurements. After 28 days, the mice were sacrificed and tumor volumes were calculated by standard methods using the formula […], where V=volume, L=length and W=width.
# P21^CIP1 = assay: Western blot, P21^CIP1; assay type: cell-based; settings: 4T1 breast cancer cells; PABA 100 μg/ml 7 days
# Protocol: (§1) P21^CIP1 is a cell cycle dependent kinase inhibitor, which has a role in regulating the sensitivity of breast cancer cells to chemotherapeutic agents such as TAXOL®. 4T1 breast cancer cells were incubated in the presence or absence of PABA (100 μg/ml) for 7 days. The cells were washed and cell lysates were prepared. Levels of P21^CIP1 were analyzed by Western blot. Equal amounts (50 μg/lane) were separated by SDS PAGE and transferred to nitrocellulose membranes. The membranes were probed with anti-P21^CIP1 or anti-actin monoclonal antibodies.
# [5] = cited from earlier work
# BRCA-2 = assay: Western blot, BRCA-2; assay type: cell-based; settings: G361 melanoma cells; 2 weeks with PABA
# Protocol: (§2) Western blot analysis was performed to confirm the altered expression of CDC25A, c-Myc and BRCA-2 at the protein level. G361 melanoma cells were cultured for 2 weeks in the presence or absence of PABA. The cells were harvested and lysed in 1.0% Triton-X-100 lysis buffer. Equal amounts of total cell lysates (50 μg/lane) were separated by 10% SDS PAGE and the proteins were transferred to nitrocellulose membranes. The membranes were probed with monoclonal antibodies P4C10 (anti-β1 integrin), 3303 (anti-BRCA-2) and Ab-3 (anti-CDC25A) or secondary antibody only. […] BRCA-2 expression was decreased in cells treated with PABA compared to cells grown in the absence of PABA. […] In similar studies, c-Myc expression in 4T1 breast carcinoma cells and G361 melanoma cells was examined by Western blot. The nitrocellulose membranes were probed with anti-c-Myc monoclonal antibody 9402 (available from Cell Signaling Technology, Beverly, Mass.) and anti-actin monoclonal antibody. […] No change in actin levels was observed.
# c-Myc = assay: Western blot, c-Myc; assay type: cell-based
# Protocol: as §2
# CDC25A = assay: Western blot, CDC25A; assay type: cell-based; settings: G361 melanoma cells; 2 weeks with PABA
# Protocol: as §2
# [6] = tested on: cell cycle control genes in B16F10 and G361 melanoma cells; assay: AFFYMATRIX cDNA array analysis of tumor cells; assay type: cell-based, human and mouse; settings: PABA 100 μg/ml
# Protocol: (§3) An AFFYMATRIX™ based cDNA array analysis was performed on tumor cells cultured in the presence or absence of PABA (100 μg/ml). A number of genes within the tumor cells were differentially expressed following PABA treatment. Experiments were conducted on genes that were consistently altered in both human and mouse tumor cells. […] To confirm these findings, the expression of CDC25A was analyzed. 4T1 breast carcinoma cells and B16F10 melanoma cells were incubated in the presence or absence of PABA. After 7 days, the RNA was isolated. The relative levels of CDC25A mRNA were examined by RT-PCR or real time PCR. FIG. 8.
# [7] = tested on: Lewis Lung carcinoma cells; settings: cited from earlier work
# [8] = tested on: murine 4T1 breast carcinoma cells; assay: Chick embryo CAM tumor growth, 4T1 breast carcinoma; assay type: in vivo, chick embryos; settings: 4T1 on CAM; PABA 100 ug/ml; 7 days
# Protocol: Lewis Lung carcinoma cells and murine 4T1 breast carcinoma cells (available from American Type Culture Collection, Rockville, MD-No. CRL-2539), were cultured in growth medium in the presence or absence of PABA (100 ug/ml) for at least 7 days. The cells were harvested, washed and resuspended in sterile PBS, followed by implantation on the chorioallantoic membranes (CAM) of 10-day old chick embryos. Embryos were allowed to incubate for 24 hours. The embryos were then treated with either a single fraction dose of ionizing radiation (5.0 Gy) or TAXOL® (0.01 μM) and allowed to incubate for 7 days. Tumor growth was assessed by measuring the wet weights of resected tumors (5-10 tumors per condition).
# melanogenesis = settings: in vitro and in vivo, alone or in combination with chemotherapy or radiation therapy; cited from earlier work
# G361 melanoma cells = assay: Cell cycle analysis by flow cytometry, G361; assay type: cell-based; settings: PABA 100 μg/ml 2 weeks, untreated 12%
# Protocol: (§4) G361 melanoma cells and 4T1 breast cancer cells were cultured in the presence or absence of PABA (100 μg/ml) for 2 weeks. The tumor cells were synchronized by serum starvation and cultured for 2 hours in 10% serum-containing medium. The cells were harvested, washed, fixed and stained with propidium iodide. Cell cycle analysis was performed by flow cytometry. The relative levels of untreated G361 cells (12%) and 4T1 cells (10%) in S-phase were low compared. FIG. 9. In contrast, 72% of PABA-treated G361 cells and 40% of PABA-treated 4T1 cells were in S-phase.
# 4T1 breast cancer cells = assay: Cell cycle analysis by flow cytometry, 4T1; assay type: cell-based; settings: PABA 100 μg/ml 2 weeks, untreated 10%
# Protocol: as §4
# [9] = tested on: H460 non-small cell lung cancer cells; assay: Reactive oxygen species by FACS; assay type: cell-based; settings: PABA 100 μg/ml
# Protocol: H460 non-small cell lung cancer cells were grown in the presence or absence of PABA (100 μg/ml) in RPMI-1640 media containing 10% fetal calves serum, 1% penn/strep and 1% NaPyruvate. After 24 hours, a portion of the cells were exposed to 0.01 bortezomib (10 nM) for an additional 24 hours. […] The cells were monitored for ROS by the addition of dihydrothidine at a concentration of 5 μM for 15 minutes followed by fixation in ethanol and analysis by FACS. […] FIG. 10. Cells treated with PABA and bortezomib had about a 2 fold increase in ROS compared to cells treated with bortezomib alone.
# CDC25A mRNA = CDC25A mRNA by RT-PCR; assay type: cell-based; settings: 7 days
# Protocol: as §3
# actin = assay: Western blot, actin; assay type: cell-based
# Protocol: as §2
# as §1, with “Equal amounts (50 μg/lane) were separated by SDS PAGE and transferred to nitrocellulose membranes. The membranes were probed with anti-P21^CIP1 or anti-actin monoclonal antibodies.” left out
# β1 integrin subunit = assay: Western blot, β1 integrin; assay type: cell-based; settings: G361 melanoma cells; 2 weeks with PABA
# Protocol: as §2
# [10] = tested on: SKOV-3 ovarian carcinoma cells; assay: MTT proliferation assay, SKOV-3 cells; assay type: cell-based; settings: topotecan 0.1 uM alone, compared to untreated controls
# Protocol: Similarly, SKOV-3 ovarian carcinoma cells were incubated with or without PABA at 0.1 mg/ml in DMEM for 3 days and subsequently exposed to topotecan at concentrations of 0, 0.1, 0.5 and 2.0 μM, and ^90Y-huBrE-3 at concentrations of 0, 1.0, 2.0, and 4.0 μCi, and evaluated using an MTT assay after 72 hrs.
# [11] = tested on: hormone receptor-positive tumors; settings: 3-year; cited from earlier work
# [12] = tested on: stage II or stage III breast cancer; settings: cited from earlier work
structure (smiles),measurement,setting,value
CC(C)C[C@H](NC(=O)[C@H](Cc1ccccc1)NC(=O)c1cnccn1)B(O)O [bortezomib],induction of reactive oxygen species (ROS),[1],actively induce reactive oxygen species (ROS)
"O=c1[nH]cc(F)c(=O)[nH]1 [5-FU, 5-fluorouracil]",inhibition at 1 µM,[2],~25%
"CC(=O)O[C@H]1C(=O)[C@@]2(C)[C@H]([C@H](OC(=O)c3ccccc3)[C@]3(O)C[C@H](OC(=O)[C@H](O)[C@@H](NC(=O)c4ccccc4)c4ccccc4)C(C)=C1C3(C)C)[C@]1(OC(C)=O)CO[C@@H]1C[C@@H]2O [TAXOL®, paclitaxel, reference compound]",effect on growth of Lewis Lung tumors,[3],neither PABA nor TAXOL® alone inhibited the growth
same,responses with either treatment modality alone,MCF-7 xenograft,no responses
"CC(=O)O[C@@]12CO[C@@H]1C[C@H](O)[C@@]1(C)C(=O)[C@H](O)C3=C(C)[C@@H](OC(=O)[C@H](O)[C@@H](NC(=O)OC(C)(C)C)c4ccccc4)C[C@@](O)([C@@H](OC(=O)c4ccccc4)[C@H]21)C3(C)C [docetaxel, reference compound]",reduction of tumor growth,"[4]; docetaxel 8.0 mg/kg 1 time/week i.p., PABA 500 μg/mouse daily, 28 days (FIG. 3)",~45%
"Nc1ccc(C(=O)O)cc1 [PABA, p-amino-benzoic acid]",levels of P21^CIP1,P21^CIP1,significantly reduced
same,effect on growth of Lewis Lung tumors,[3],neither PABA nor TAXOL® alone inhibited the growth
same,time of peak plasma concentration after ingestion,[5]; after ingestion,about ¾
same,mean half life,[5]; in vivo,about 0.5 hours
same,BRCA-2 protein expression,BRCA-2,decreased
same,c-Myc protein expression,c-Myc; 4T1 cells,significant up-regulation
same,c-Myc protein expression,c-Myc; G361 cells,significant up-regulation
same,reduction of mean tumor volume compared to untreated control mice,"[4]; PABA 500 μg/mouse daily i.p., radiation 9.0 Gy, 28 days (FIG. 4)",about 26%
same,CDC25A protein expression,CDC25A,markedly increased
same,BRCA-2 gene expression,[6],down-regulated
same,H2A histone gene expression,[6],down-regulated
same,H2B histone gene expression,[6],down-regulated
same,P21^CIP1 gene expression,[6],down-regulated
same,in vitro proliferation of Lewis Lung carcinoma cells,[7],inhibit the in vitro proliferation
same,effect on 4T1 breast carcinoma tumor growth,[8],Neither PABA alone nor a single fraction dose of ionizing radiation had any effect
same,melanogenesis,melanogenesis,inhibits melanogenesis
same,cells in S-phase,G361 melanoma cells,72%
same,cells in S-phase,4T1 breast cancer cells,40%
same,increase in ROS compared to untreated cells,[9],3 fold
same,increase in levels of CDC25A mRNA compared to untreated controls,CDC25A mRNA; 4T1 breast carcinoma cells,about 2 fold
same,increase in levels of CDC25A mRNA compared to untreated controls,CDC25A mRNA; B16F10 melanoma cells,about 2 fold
same,actin levels,"actin; 4T1 and G361 cells, c-Myc blots",No change
same,level of actin,"actin; 4T1 breast cancer cells, PABA 100 μg/ml 7 days",Little change
same,β1 integrin subunit expression,β1 integrin subunit,no change
CC[C@@]1(O)C(=O)OCc2c1cc1n(c2=O)Cc2cc3c(CN(C)C)c(O)ccc3nc2-1 [topotecan],inhibition of proliferation,[10],minimally
CC/C(=C(\c1ccccc1)c1ccc(OCCN(C)C)cc1)c1ccccc1 [tamoxifen],disease-free survival,[11],67%
same,overall survival,[11],85%
same,overall survival,[12]; at 10 years,36%
same,local-regional recurrence,"[12]; median follow-up of 10 years, tamoxifen 30 mg daily for 1 year",35%
